In PMC8624998, “Synthesis and Antiproliferative Evaluation of 3-Chloroazetidin-2-ones with Antimitotic Activity: Heterocyclic Bridged Analogues of Combretastatin A-4” (Pharmaceuticals, 2021):
Like-named read-outs stand apart in the source and are kept apart here.

What was measured:
Type in all cases: cell-based
U266 cells = test: Cell viability assay, antiproliferative activity; details: Homo sapiens, U-266; U266, 72 h
Description: Compounds 10n and 10e were next evaluated for antiproliferation in multiple myeloma (U266) cells. Multiple myeloma, also known as plasma cell myeloma, is a malignant haematological disease characterised by the proliferation of clonal plasma cells predominantly in the bone marrow. U266 cells are considered to be the least sensitive multiple myeloma cells to nucleoside drug cladribine compared to RPMI8226 and MM1.S cells.
The human breast carcinoma cell line MCF-7 was purchased from the European Collection of Animal Cell Cultures (ECACC). Triple negative breast cancer Hs578T cells and its invasive variant Hs578Ts(i)8 were a kind gift from Dr. Susan McDonnell, School of Chemical and Bioprocess Engineering, University College Dublin. U266 cells were a gift from Dr. Tony McElligott, School of Medicine, St James’s Hospital, Trinity College Dublin. HT-29 cells were purchased from the European Collection of Cell Cultures (originating from a human adenocarcinoma of the colon). The human breast carcinoma cell line MDA-MB-231 and the HL-60 cells derived from a patient with acute myeloid leukaemia were both obtained from ECACC (Salisbury, UK). The SW-480 cells were a kind gift from Dr. Brian Flood, School of Biochemistry and Immunology, Trinity College Dublin. HEK-293T (normal epithelial embryonic kidney cells) were cultured in Dulbecco’s Modified Eagle’s Medium (DMEM) with GlutaMAXTM-I in the absence of non-essential amino acids. […] Cell numbers were monitored using a haemocytometer. […]
A stock solution of each β-lactam compound was prepared (10 mM) and serial […] dilutions were made with ethanol for compounds to have working dilutions of 1 nM, 10 nM, 100 nM, 500 nM, 1µM, 5 µM, 10 µM and 50 µM. […] Solubilisation was commenced by the addition of DMSO ([…]) and the cells were maintained at 20 °C in the dark for 20 min before reading the absorbance to ensure complete colour diffusion. […]

HT-29 cells = test: Cell viability assay, antiproliferative activity
Description: […]. The corresponding values for 10e in these cell lines were 161 nM (HL-60), 55 nM (SW480) and 135 nM (HT-29). […] […]. SW480 colon cells expressed low levels of the UDP-glucuronosyltransferase (UGT) protein compared to expression levels in HT-29 cells. […] […].
The human breast carcinoma cell line MCF-7 was purchased from the European Collection of Animal Cell Cultures (ECACC). Triple negative breast cancer Hs578T cells and its invasive variant Hs578Ts(i)8 were a kind gift from Dr. Susan McDonnell, School of Chemical and Bioprocess Engineering, University College Dublin. U266 cells were a gift from Dr. Tony McElligott, School of Medicine, St James’s Hospital, Trinity College Dublin. HT-29 cells were purchased from the European Collection of Cell Cultures (originating from a human adenocarcinoma of the colon). The human breast carcinoma cell line MDA-MB-231 and the HL-60 cells derived from a patient with acute myeloid leukaemia were both obtained from ECACC (Salisbury, UK). The SW-480 cells were a kind gift from Dr. Brian Flood, School of Biochemistry and Immunology, Trinity College Dublin. HEK-293T (normal epithelial embryonic kidney cells) were cultured in Dulbecco’s Modified Eagle’s Medium (DMEM) with GlutaMAXTM-I in the absence of non-essential amino acids. Human breast cancer MCF-7 cells and multiple myeloma U266 cells were cultured in Minimum Essential Media (MEM) with GlutaMAX™-I, supplemented with 1% (v/v) non-essential amino acids, 10% 2(v/v) foetal bovine serum (FBS) and 1% (v/v) penicillin/streptomycin 5000 U/mL. MDA-MB-231 cells were maintained in DMEM supplemented with 10% (v/v) foetal bovine serum, 2 mM L-glutamine and 100 μg/mL penicillin/streptomycin (complete medium). Colon cancer HT-29 and SW-480 and triple negative breast cancer Hs578T and its invasive variant Hs578T8i were cultured in DMEM with GlutaMAX™-I, with the same supplement in the absence of non-essential amino acids. Leukaemia HL-60 cancer cells were cultured in Roswell Park Memorial Institute Media (RPMI-1640) with GlutaMAX™-I, supplemented with 10% FCS media, and 100 μg/mL penicillin/streptomycin as above. Cell numbers were monitored using a haemocytometer. Cell culture flasks were incubated in a humidified incubator (5% CO2/95% air) at 37 °C. All cell lines were sub-cultured three times per week with trypsinisation using TrypLE Express (1X) required for adherent cell lines.
. All stock solutions and serial dilution in ethanol/DMSO were stored at -20 °C. All cells were seeded at a density of 2.5 × 10^4 cells/mL in a 96-well plate (200 μL per well). The cells were incubated in a […] atmosphere at 37 °C for 24 h, then treated with test compound (2 μL of stock solutions per 200-microlitre well) in ethanol to obtain a concentration range of 1 nM–200 μM for the study. The plates were then re-incubated for a further 72 h. Control wells contained an equivalent volume of the vehicle ethanol or DMSO (1% v/v). MTT cell viability assay: The culture medium was removed, and the cells were washed with phosphate buffered saline (PBS, […]). MTT (dissolved in PBS, […]) was added to obtain a final concentration of MTT (1 mg/mL). Cells were incubated at 37 °C for 3 h in the dark. Solubilisation was commenced by the addition of DMSO ([…]) and the cells were maintained at 20 °C in the dark for 20 min before reading the absorbance to ensure complete colour diffusion. The absorbance value of control cells (no added compound) was set to 100% cell viability and absorbance versus cell density per well was determined to assess cell viability using Graph-Pad Prism software. AlamarBlue cell viability assay: Cells were seeded in 96-well plates (e.g., MCF-7, 5 × 10^3 cells/well) and (HT-29 cells, 1 × 10^3 cells/well) and (HL-60 cells, 1 × 10^4 cells/well) with a total volume per well of 200 µL. After 24 h, cells were treated in triplicate with serial dilutions of CA-4 or β-lactam analogues (0.001–100 μM), medium alone or vehicle (1% ethanol (v/v)). […]

SF-268 = test: NCI-60 5 dose screen, CNS Cancer; details: Homo sapiens
SF295 = test: NCI-60 5 dose screen, CNS Cancer; details: Homo sapiens, SF-295
PC-3 = test: NCI-60 5 dose screen, Prostate cancer; details: Homo sapiens
IGROV1 = test: NCI-60 5 dose screen, Ovarian Cancer; details: Homo sapiens, IGROV-1
OVCAR-4 = test: NCI-60 5 dose screen, Ovarian Cancer; details: Homo sapiens
786-0 = test: NCI-60 5 dose screen, Renal Cancer; details: Homo sapiens
RXF 393 = test: NCI-60 5 dose screen, Renal Cancer; details: Homo sapiens
SN12C = test: NCI-60 5 dose screen, Renal Cancer; details: Homo sapiens
UO-31 = test: NCI-60 5 dose screen, Renal Cancer; details: Homo sapiens
[1] = Homo sapiens, HT-29, 72 h; read-out: HT-29 IC50

IC50 (U266 cells) | IC50 (HT-29 cells; [1]) | SMILES | GI50 (SF-268; read-out: GI50) | GI50 (SF295; SF295, read-out: GI50) | GI50 (PC-3; read-out: GI50) | GI50 (IGROV1; IGROV1, read-out: GI50) | GI50 (OVCAR-4; read-out: GI50) | GI50 (786-0; read-out: GI50) | GI50 (RXF 393; read-out: GI50) | GI50 (SN12C; read-out: GI50) | GI50 (UO-31; read-out: GI50) | other results
31 ± 10 nM | 631 ± 30 nM | COc1ccc(C2C(Cl)C(=O)N2c2cc(OC)c(OC)c(OC)c2)cc1O (stereo not shown) [Compound 10n, 3-Chloro-4-(3-hydroxy-4-methoxy-phenyl)-1-(3,4,5-trimethoxyphenyl)azetidin-2-one] | – | – | – | – | – | – | – | – | – | –
– | – | COc1ccc(C2N(c3cc(OC)c(OC)c(OC)c3)C(=O)C2(Cl)Cl)cc1O (stereo not shown) [Compound 11n, 3,3-Dichloro-4-(3-hydroxy-4-methoxyphenyl)-1-(3,4,5-trimethoxyphenyl)azetidin-2-one] | – | – | – | – | – | – | – | – | – | IC50 (HT-29 cells; Homo sapiens, HT-29, 72 h, read-out: HT-29 IC50): 941 ± 60 nM; GI50 (SF-268): 51.4 nM; GI50 (SF295): 38.7 nM; GI50 (PC-3): 35.3 nM; GI50 (IGROV1): 44.5 nM; GI50 (OVCAR-4): 74.1 nM; GI50 (786-0): 41.2 nM; GI50 (RXF 393): 30 nM; GI50 (SN12C): 44.6 nM; GI50 (UO-31): 82.1 nM
77 ± 20 nM | 135 ± 60 nM | COc1ccc([C@H]2[C@H](Cl)C(=O)N2c2cc(OC)c(OC)c(OC)c2)cc1 (relative stereo) [Compound 10e trans, Trans-3-chloro-1-(3,4,5-trimethoxyphenyl)-4-(4-methoxyphenyl) azetidin-2-one] | 158 nM | 25.4 nM | 44.1 nM | 58 nM | 106 nM | 69.4 nM | 27.1 nM | 83.7 nM | 64.4 nM | –
– | – | CCSc1ccc(C2C(Br)C(=O)N2c2cc(OC)c(OC)c(OC)c2)cc1 (stereo not shown) [Compound 16d, 3-Bromo-4-(4-(ethylthio)phenyl)-1-(3,4,5-trimethoxyphenyl)azetidin-2-one] | 1180 nM | 87 nM | 297 nM | 63 nM | 1430 nM | 340 nM | 170 nM | 925 nM | 342 nM | –

SMILES | IC50 (U266 cells) | IC50 (HT-29 cells; [1]) | GI50 (SF-268; read-out: GI50) | GI50 (SF295; SF295, read-out: GI50) | GI50 (PC-3; read-out: GI50) | GI50 (IGROV1; IGROV1, read-out: GI50) | GI50 (OVCAR-4; read-out: GI50) | GI50 (786-0; read-out: GI50) | GI50 (RXF 393; read-out: GI50) | GI50 (SN12C; read-out: GI50) | GI50 (UO-31; read-out: GI50) | other results
COc1ccc(/C=C\c2cc(OC)c(OC)c(OC)c2)cc1O [CA-4, Combretastatin A-4] | 35 ± 10 nM | – | – | – | – | – | – | – | – | – | – | IC50 (HT-29 cells; Homo sapiens, HT-29; read-out: HT-29 IC50): 4160 nM
